The test deals with CEM cells HIV-1 protection, formazan growth assay. The test is described as follows: NCI AIDS Antiviral Assay. The note with it: for IC50: measured here: growth of uninfected CEM cells. A digest of the protocol:
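Soluble formazan readout of cell growth; CEM cells ± HIV-1; 5 drug concs. ≥50% protection → retest; ≥50% again = moderately active; reproducible 100% = confirmed active.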

Calls of active or inactive are those of the source.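 How the source made its calls: active means compounds giving half or more protection of infected cells from virus-caused growth loss, again on retest; inactive means the rest.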 Where a SMILES comes first, the peptide text is derived from it. [ ]: non-standard residue; d: D form. The star is where a group is joined. ξ: configuration not given here. Bz = O=C(c1ccccc1)*; Bn = c1ccc(C*)cc1; ξC = NC(CS)C(=O)O Where only a bound is given, the exact number is not on record here.

Regarding `[B]C(=O)NC(CC(C)C)C(=O)NC1c2ccsc2C(=O)C1O` (stereo not given) (tested in a mixture with another compound), the EC50 was greater than 200 µM and the IC50 was greater than 200 µM.
On to `COc1ccc2nc3cc(Cl)ccc3c(Nc3ccc(C(=O)O)c(O)c3)c2c1`, for which the EC50 was greater than 60.3 µM and the IC50 is greater than 60.3 µM.
For `CCO/N=[N+](\[O-])N(CC)CC`, the EC50 is greater than 9770 µM and the IC50 worked out at 8710 µM.
`COC(=O)C(CSCc1ccccc1)NC(=O)CNC(=O)c1ccccc1` (stereo not given) (Bz-Gly-[ξC](Bn)-OMe): the EC50 was greater than 245 µM and the IC50 stood at 219 µM.
In the case of `O=c1[nH]c(Nc2nc3ccccc3[nH]2)nc2c1CCC2`, the EC50 was greater than 200 µM and the IC50 is greater than 200 µM.
For `CCOC(=O)c1ccc(NC(=O)O/N=C(/Cl)C(C)C)cc1`, the EC50 was greater than 200 µM and the half-inhibitory concentration (IC50) amounted to 10.5 µM.
On the same counts, the results for `COc1ccc2nc3ccccc3c(NCCCCCCN(CCCl)CCCl)c2c1` are greater than 0.2 µM and 0.162 µM.
As for `O=C(Nc1ccc(Cl)c(Cl)c1)NC(CO)(CO)CO`, the EC50 was greater than 200 µM and the IC50 was 110 µM.
For the molecule `CS/C(=C(\S)c1ccccc1)c1ccccc1`, the outcome was inactive.
For `CCCCc1ccc(Nc2nc(Cl)c3c(ncn3C3CC(Oc4ccc(C)cc4)C(COc4ccc(C)cc4)O3)n2)cc1` (stereo not given), the EC50 is greater than 200 µM and the IC50 is greater than 200 µM.
As for `COc1ccc2nccc(NCCCN3CCN(CCCNc4ccnc5ccc(OC)cc45)CC3)c2c1`, the EC50 was greater than 0.537 µM and the IC50 turned out to be 0.105 µM.
On the same counts, the results for `Cc1ccc(S(=O)(=O)NNC2Oc3cc4c(cc3C(c3ccccc3O)C2C)OCO4)cc1` (stereo not given) are greater than 200 µM and 26.3 µM.
With `O=c1cc(CCl)n2cnc3c(ncn3C3OC(CO)C(O)C3O)c2n1` (stereo not given), the result was inactive.
Regarding `C[C@@]12C[C@@H](c3ccccc3O1)N1CCCSC1=N2`, the EC50 is 74.1 µM and the IC50 is greater than 200 µM.
For the molecule `C/C=C/C1(C)/C(=N\O)C(C)(CCC)C(=O)N1O` (stereo not given), the EC50 was 25.1 µM and the IC50 was found to be 1050 µM.
`CNC(=S)SSC(=S)NCCNC(=S)SSC(=S)NC`: the result was inactive.
Take `CCOC(=O)Nc1nc2c(s1)c([N+](=O)[O-])cn2C`: the EC50 is greater than 69.2 µM and the IC50 was determined as 27.5 µM.
Consider `COC/N=C(\NC#N)NCOC`, for which the EC50 is greater than 525 µM and the IC50 is greater than 525 µM.
With `Cc1ccc(Nc2cc(=O)[nH]c(=S)[nH]2)cc1`, the EC50 is greater than 200 µM and the IC50 is greater than 200 µM.
On to `c1ccc(CCN(CCc2ccccn2)CCc2ccccn2)cc1`, for which the result was inactive.
On to `CCCCCCCC/C=C\CCCCCCCCOP(=O)(O)OCCC=C(c1cc(Cl)c(O)c(C(=O)O)c1)c1cc(Cl)c(O)c(C(=O)O)c1`, for which the EC50 was greater than 77.6 µM and the IC50 is 69.2 µM.
With `CCCCCCCCCCCCCCCC=C(c1cc(Br)cc(C(=O)O)c1OC)c1cc(Br)cc(C(=O)O)c1OC`, the EC50 is greater than 1070 µM and the IC50 was 24 µM.
On the same counts, the results for `CC(C)(C)C1COP(=O)(C(C)(C)C)OC1` (stereo not given) are greater than 537 µM and 468 µM.
As to `CCCNc1c(Cl)cc(Cl)c2[nH]c3ccccc3c(=O)c12`, the EC50 was greater than 200 µM and the IC50 turned out to be 23.4 µM.
On the same counts, the results for `CC(C)(C)OC(=O)c1cccnc1/C=N/O` are greater than 589 µM and 186 µM.
On the same counts, the results for `COc1ccc(C(O)c2ccc3c(c2)OCO3)cc1` (stereo not given) are greater than 200 µM and 162 µM.
`N.N.N.N.N.NC(=O)[O-].[Co+3].[I-]`: the result was inactive.
Consider `COc1ccc(/C=N/N=C(\N)NO)c(OC)c1OC`, for which the EC50 was greater than 200 µM and the concentration for half-maximal inhibition (IC50) is greater than 200 µM.
On to `Cc1cc(NS(=O)(=O)c2ccc(NC(=O)c3ccc4nc5ccccc5c(Nc5ccc(S(N)(=O)=O)cc5)c4c3)cc2)no1`, for which the EC50 is greater than 81.3 µM and the IC50 is 29.5 µM.
On to `Oc1ccc(SCc2cc(O)c(O)c(O)c2)cc1`, for which the EC50 was greater than 200 µM and the half-maximal inhibitory concentration (IC50) is 6.92 µM.
Consider `NC(=O)c1n[nH]c(C2OC(CO)C(O)C2O)n1` (stereo not given), for which the EC50 was greater than 200 µM and the IC50 worked out at 170 µM.
As for `O=C(O)CSc1cc2c3ccccc3sc2c2ccccc12`, the EC50 was greater than 6.17 µM and the IC50 was greater than 6.17 µM.
In the case of `c1ccc(C2=NN2c2ccccc2)cc1`, the result was inactive.
As for `CN1CCOC1(C)c1ccccc1O` (stereo not given), the EC50 is greater than 200 µM and the IC50 is greater than 200 µM.
`O=C1NC2(C=Cc3c(ccc4ccccc34)O2)Oc2ccccc21` (stereo not given): the EC50 is greater than 11.5 µM and the IC50 is greater than 11.5 µM.
With `CCCCCCCCCCCCCCCCSS(C)(=O)=O`, the EC50 is greater than 13.8 µM and the IC50 was found to be 6.92 µM.
`C=C1CC(COc2cc(=O)oc3ccccc23)(c2ccccc2)OC1=O` (stereo not given): the EC50 was greater than 200 µM and the IC50 stood at 0.38 µM.
Turning to `COc1cc2c(cc1OC)C(Cc1ccccc1NC(=O)c1ccc(C(=O)Nc3ccccc3CC3c4cc(OC)c(OC)cc4CCN3C)cc1)N(C)CC2` (stereo not given), the outcome was inactive.
In the case of `Nc1nc(=S)[nH]c(C(=O)Nc2ccc(Cl)c(Cl)c2)c1-c1ccc(Cl)cc1`, the EC50 is greater than 43.7 µM and the IC50 is greater than 43.7 µM.
For `CC1Cc2c(cc(N)nc2Br)NC1=O` (stereo not given), the EC50 is greater than 200 µM and the 50% inhibitory concentration (IC50) was determined as 95.5 µM.
As to `NCCN1C(=O)c2ccccc2C1(O)c1ccccc1` (stereo not given), the EC50 was greater than 200 µM and the IC50 is greater than 200 µM.
Turning to `Cc1cc(=O)n(/C=C/C(=O)O)c2ccccc12`, the EC50 was greater than 200 µM and the IC50 is greater than 200 µM.
With `CCCNC(=O)N(CC(C)C)S(=O)(=O)c1ccc(Cl)cc1`, the result was inactive.
For `C(#CCN1CCCC1)CCCN1CCCC1`, the EC50 was greater than 200 µM and the IC50 was greater than 200 µM.
Take `CSc1cc(-c2ccccc2)s[s+]1` (tested in a mixture with another compound): the EC50 is greater than 200 µM and the half-maximal inhibitory concentration (IC50) is 35.5 µM.
`Cc1cccc(C)c1N1C(=O)C(=O)C(c2nc3ccccc3s2)/C(=N/NC(=O)c2ccccc2O)C1=O` (stereo not given): the EC50 is greater than 251 µM and the half-inhibitory concentration (IC50) worked out at 6.61 µM.
For the molecule `O=c1[nH]nc(Cc2ccc(Cl)cc2)n1/N=C\CC/C=N\n1c(Cc2ccc(Cl)cc2)n[nH]c1=O`, the EC50 is greater than 200 µM and the IC50 is 148 µM.
Take `N#Cc1c(-c2ccc(Cl)cc2)c(C#N)c(=O)n(NS(=O)(=O)c2ccccc2)c1-c1ccccc1`: the EC50 is greater than 151 µM and the IC50 is 32.4 µM.
On the same counts, the results for `CCCCCCCCCCCCCCCC(=O)Nc1ccn(C2CCC(COP(=O)(O)OCC3OC(n4cc(C)c(=O)[nH]c4=O)CC3F)O2)c(=O)n1` (stereo not given) are 0.0132 µM and 0.2 µM.
With `O=C1/C(=C\c2ccccc2)Oc2ccc(Cl)cc21`, the EC50 is greater than 14.5 µM and the IC50 was greater than 14.5 µM.
`CCO/C=N\c1c(C#N)c(-c2ccc(Cl)cc2)cn1-c1ccc(C)cc1`: the EC50 is greater than 200 µM and the IC50 amounted to 25.1 µM.
Turning to `Cc1ccc2c(c1)-c1nc(N)c(C#N)c(-c3ccccc3)c1CCS2(=O)=O`, the EC50 was greater than 200 µM and the IC50 is greater than 200 µM.
On to `CCN(CC)CC(=O)NC1c2ccccc2Oc2ccccc21`, for which the EC50 is greater than 219 µM and the IC50 was greater than 219 µM.
For the molecule `CC(C)NCC1CCc2cc(CO)c([N+](=O)[O-])cc2N1` (stereo not given), the EC50 is greater than 200 µM and the IC50 is greater than 200 µM.

One may read the EC50 as the midpoint of the concentration-response curve. Usually IC50 stands for the point on the concentration scale where inhibition reaches its midpoint. Lower therefore signals greater potency in that assay.
